Results: patent publication US20220363719A1, “Reverse Amide-Linked Melanocortin Receptor-Specific Cyclic Peptides” (Palatin Technologies, Inc., priority 2020, published 2022)
Where a SMILES comes first, the peptide text is derived from it. Bridges are numbered along the chain shown (N, C = ends). [ ]: non-standard residue; d: D form. The star is where a group is joined. ξ: configuration not given here. d1Nal = N[C@H](Cc1cccc2ccccc12)C(=O)O; Nle = CCCC[C@H](N)C(=O)O; Orn = NCCC[C@H](N)C(=O)O; Dab = NCC[C@H](N)C(=O)O; ξHyp = O=C(O)C1CC(O)CN1; Dap = NC[C@H](N)C(=O)O; Hexanoyl = CCCCCC(=O)*; Ahx = NCCCCCC(=O)O; Bn = c1ccc(C*)cc1; GABA = NCCCC(=O)O; βAla = NCCC(=O)O

Tests used:
Format in all cases: cell-based
hMC5r = molecular target: T1, hMC5r (Homo sapiens, UniProt P33032); assay: cAMP agonist activity assay performed at CEREP (HTRF), MC5; conditions: determined by CEREP, CHO-K1 cells; for EC50: cAMP HTRF; for Emax: control Alpha-MSH, read-out: Emax percent hMC5r* (percent of the maximal response obtained with the positive control)
T1 construct: Eurofins CEREP SA
Experimental: (§1) Evaluation of the agonist activity of compounds at the melanocortin receptors was determined by measuring their effects on cAMP production using the HTRF detection method at CEREP (Eurofins CEREP SA, Celle-Lévescault, France). The cells were suspended in HBSS buffer (Invitrogen) complemented with 20 mM HEPES (pH 7.4) and 500 μM IBMX, then distributed in microplates and incubated in the presence of HBSS (basal control), the test compound or the reference agonist. Incubation time, temperature, cell number, reference agonist and cell line information are included in the Table 1 below. For stimulated control measurement, separate assay wells contain reference compound. Following incubation, the cells are lysed and the fluorescence acceptor (D2-labeled cAMP) and fluorescence donor (anti-cAMP antibody labeled with europium cryptate) were added. After 60 minutes at room temperature, the fluorescence transfer was measured at excitation wavelength 337 nm and emission wavelengths 620 and 665 nm using a microplate reader (Envision, Perkin Elmer). The cAMP concentration was determined by dividing the signal measured at 665 nm by that measured at 620 nm (ratio).
(§2) The results are expressed as a percent of the control response to 1 μM of the reference. The standard reference agonist is tested in each experiment at several concentrations to generate a concentration-response curve from which its EC50 value is calculated.

mMC1r [1] = molecular target: T2, mMC1r (Mus musculus, UniProt Q01727); assay: Alternative assay for agonist activity (intracellular cAMP), B16-F10 cells, native MC1r; design: B16-F10 (mouse) and HBL (human) cell lines that express native MC1 r; endogenous in cells; host or cells: B16-F10 mouse melanoma cells; conditions: not CEREP; for EC50: cAMP HTRF; for Emax: reference NDP-α-MSH, read-out: Emax percent mMC1r (percent of the maximal response obtained with the positive control)
Experimental: (§3) Accumulation of intracellular cAMP was examined as a measure of the ability of the peptides to elicit a functional response in either HEK-293 cells that express recombinant MC3r or MC4r or B16-F10 (mouse) and HBL (human) cell lines that express native MC1 r. Confluent cells were detached from culture plates by incubation in enzyme-free cell dissociation buffer. Dispersed cells were suspended in Hank's Balanced Salt Solution containing 10 mM HEPES (pH 7.5), 1 mM MgCl2, 1 mM glutamine, 0.5% albumin and 0.3 mM 3-isobutyl-1-methyl-xanthine (IBMX), a phosphodiesterase inhibitor. The cells were dispensed into 96-well plates at a density of 0.5×10^5 cells per well and pre-incubated for 10 minutes. Cells were exposed for 15 minutes at 37° C. to peptides dissolved in DMSO (final DMSO concentration of 1%) at a concentration range of 0.05-5000 nM in a total assay volume of 200 μL. NDP-α-MSH was used as the reference agonist. cAMP levels were determined by an HTRF® cAMP cell-based assay system from Cisbio Bioassays utilizing cryptate-labeled anti-cAMP and D2-labeled cAMP, with plates read on a Perkin-Elmer Victor plate reader at […]. Data analysis was performed by nonlinear regression analysis with Graph-Pad Prism® software. The maximum efficacies of the test peptides were compared to that achieved by the reference melanocortin agonist NDP-α-MSH.

hMC4r = hMC4r (Homo sapiens, UniProt P32245); assay: Alternative assay for agonist activity (intracellular cAMP), HEK-293 cells, recombinant MC4r; design: expressed in transfected cells; host or cells: HEK-293; conditions: for Emax: HEK293, not CEREP, reference NDP-α-MSH, read-out: Emax percent hMC4r (percent of the maximal response obtained with the positive control); for EC50: not CEREP, cAMP HTRF
Experimental: as §3

hMC3r = hMC3r (Homo sapiens, UniProt P41968); assay: Alternative assay for agonist activity (intracellular cAMP), HEK-293 cells, recombinant MC3r; design: expressed in transfected cells; host or cells: HEK-293; conditions: for Emax: HEK293, not CEREP, reference NDP-α-MSH, read-out: Emax percent hMC3r (percent of the maximal response obtained with the positive control); for EC50: not CEREP, cAMP HTRF
Experimental: as §3

hMC1r = molecular target: T3, hMC1r (Homo sapiens, UniProt Q01726); assay: Alternative assay for agonist activity (intracellular cAMP), HBL cells, native MC1r; conditions: not CEREP; for EC50: cAMP HTRF; for Emax: reference NDP-α-MSH, read-out: Emax percent hMC1r (percent of the maximal response obtained with the positive control)
T3 construct: B16-F10 (mouse) and HBL (human) cell lines that express native MC1 r; endogenous in cells; host or cells: HBL human melanoma cells
Experimental: as §3

mMC1r [2] = molecular target: T2, mMC1r; assay: cAMP agonist activity assay performed at CEREP (HTRF), MC1; conditions: determined by CEREP, B16-F1 cells; for EC50: cAMP HTRF; for Emax: control NDP-alpha-MSH, read-out: Emax percent mMC1r* (percent of the maximal response obtained with the positive control)
Experimental: as §1, §2

T3 sequence (Q01726 whole entry): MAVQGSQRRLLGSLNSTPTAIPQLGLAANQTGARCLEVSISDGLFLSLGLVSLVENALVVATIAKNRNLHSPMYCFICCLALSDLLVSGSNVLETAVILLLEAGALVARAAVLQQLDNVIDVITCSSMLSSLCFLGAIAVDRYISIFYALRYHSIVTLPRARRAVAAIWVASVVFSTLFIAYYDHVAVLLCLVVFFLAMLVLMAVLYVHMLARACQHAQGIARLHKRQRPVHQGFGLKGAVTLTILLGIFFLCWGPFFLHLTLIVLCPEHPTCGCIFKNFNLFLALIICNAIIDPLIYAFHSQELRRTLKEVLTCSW
Chain of hMC3r (P41968 whole entry): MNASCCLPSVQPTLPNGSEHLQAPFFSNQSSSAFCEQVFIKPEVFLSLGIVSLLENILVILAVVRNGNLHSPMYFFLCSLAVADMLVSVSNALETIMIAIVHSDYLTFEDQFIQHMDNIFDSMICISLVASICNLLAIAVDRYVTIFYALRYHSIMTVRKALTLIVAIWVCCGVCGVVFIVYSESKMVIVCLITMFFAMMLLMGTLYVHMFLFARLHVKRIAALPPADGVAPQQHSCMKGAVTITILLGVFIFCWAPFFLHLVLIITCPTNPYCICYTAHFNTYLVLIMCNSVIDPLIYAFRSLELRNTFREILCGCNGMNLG
Chain of hMC4r (P32245 whole entry): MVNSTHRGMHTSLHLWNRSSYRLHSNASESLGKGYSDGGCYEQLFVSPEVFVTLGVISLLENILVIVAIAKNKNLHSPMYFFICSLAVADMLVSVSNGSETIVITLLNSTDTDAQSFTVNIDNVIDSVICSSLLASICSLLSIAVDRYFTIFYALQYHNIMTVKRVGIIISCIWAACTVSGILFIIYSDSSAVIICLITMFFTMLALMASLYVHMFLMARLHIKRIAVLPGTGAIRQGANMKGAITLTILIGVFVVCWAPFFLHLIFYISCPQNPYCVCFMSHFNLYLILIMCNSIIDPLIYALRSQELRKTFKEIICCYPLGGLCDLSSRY
T2 sequence (Q01727 whole entry): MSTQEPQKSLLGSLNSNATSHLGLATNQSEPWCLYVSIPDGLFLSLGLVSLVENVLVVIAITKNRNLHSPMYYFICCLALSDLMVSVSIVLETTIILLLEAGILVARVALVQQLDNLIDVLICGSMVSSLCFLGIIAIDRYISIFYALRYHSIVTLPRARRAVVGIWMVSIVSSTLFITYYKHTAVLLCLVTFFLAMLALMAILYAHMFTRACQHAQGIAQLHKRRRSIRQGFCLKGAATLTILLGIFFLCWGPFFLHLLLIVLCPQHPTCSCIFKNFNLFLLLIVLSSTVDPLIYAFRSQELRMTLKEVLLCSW
T1 sequence (P33032 whole entry): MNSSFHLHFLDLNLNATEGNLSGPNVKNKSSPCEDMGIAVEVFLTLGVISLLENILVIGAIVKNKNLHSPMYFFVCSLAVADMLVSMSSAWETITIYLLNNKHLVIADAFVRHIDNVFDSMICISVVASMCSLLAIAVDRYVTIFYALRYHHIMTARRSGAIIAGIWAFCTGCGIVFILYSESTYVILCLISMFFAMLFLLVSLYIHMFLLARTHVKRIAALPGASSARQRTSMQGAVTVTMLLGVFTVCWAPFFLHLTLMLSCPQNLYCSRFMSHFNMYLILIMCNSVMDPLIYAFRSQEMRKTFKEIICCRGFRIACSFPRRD

SMILES | EC50 (hMC5r) | Emax (hMC5r) | EC50 (mMC1r [1]) | Emax (mMC1r [1]) | Emax (hMC4r) | EC50 (hMC4r) | Emax (hMC3r) | EC50 (hMC3r) | EC50 (hMC1r) | Emax (hMC1r) | EC50 (mMC1r [2]) | Emax (mMC1r [2])
CCCC[C@H](NC(C)=O)C(=O)N[C@H]1CNC(=O)CNC(=O)[C@H](Cc2c[nH]c3ccccc23)NC(=O)[C@H](CCCNC(=N)N)NC(=O)[C@@H](Cc2cccc3ccccc23)NC(=O)C2CC(OCc3ccccc3)CN2C1=O (stereo partly shown) [Peptide 6] (Ac-[Nle][Dap][ξHyp](Bn)[d1Nal]RWG; lactam 2-C) |  |  | 0.521 µM | 34% | 36% | 0.087 µM | 6% | > 10 µM |  |  |  | 
CC(=O)N[C@@H](CCCNC(=N)N)C(=O)N[C@H]1CCNC(=O)CCCCNC(=O)[C@H](Cc2c[nH]c3ccccc23)NC(=O)[C@H](CCCNC(=N)N)NC(=O)[C@@H](Cc2ccccc2)NC(=O)[C@H](Cc2c[nH]cn2)NC1=O [Peptide 9] | > 10 µM | 32% | 0.0009 µM | 79% | 105% | 0.00022 µM | 104% | 0.0005 µM |  |  |  | 
CCCC[C@H](NC(C)=O)C(=O)N[C@H]1CCCNC(=O)CNC(=O)[C@H](Cc2c[nH]c3ccccc23)NC(=O)[C@H](CCCNC(=N)N)NC(=O)[C@@H](Cc2cccc3ccccc23)NC(=O)C2CC(OCc3ccccc3)CN2C1=O (stereo partly shown) [Peptide 4] (Ac-[Nle][Orn][ξHyp](Bn)[d1Nal]RWG; lactam 2-C) | 0.01 µM | 118% | 0.026 µM | 67% | 38% | 0.015 µM | 10% | > 10 µM |  |  |  | 
CCCC[C@H](NC(C)=O)C(=O)N[C@H]1CCCNC(=O)CCNC(=O)[C@H](Cc2c[nH]c3ccccc23)NC(=O)[C@H](CCCNC(=N)N)NC(=O)[C@@H](Cc2cccc3ccccc23)NC(=O)C2CC(OCc3ccccc3)CN2C1=O (stereo partly shown) [Peptide 3] (Ac-[Nle][Orn][ξHyp](Bn)[d1Nal]RW[βAla]; lactam 2-C) | 0.0002 µM | 93% | 0.002 µM | 67% | 31% | 0.005 µM | 12% | > 10 µM |  |  |  | 
CCCC[C@H](NC(C)=O)C(=O)N[C@H]1CCNC(=O)CCNC(=O)[C@H](Cc2c[nH]c3ccccc23)NC(=O)[C@H](CCCNC(=N)N)NC(=O)[C@@H](Cc2cccc3ccccc23)NC(=O)C2CC(OCc3ccccc3)CN2C1=O (stereo partly shown) [Peptide 5] (Ac-[Nle][Dab][ξHyp](Bn)[d1Nal]RW[βAla]; lactam 2-C) | 0.00074 µM | 77% | 0.005 µM | 75% | 32% | 0.011 µM | 5% | > 10 µM |  |  |  | 
CCCCCC(=O)N[C@H]1CNC(=O)CNC(=O)[C@H](CCCNC(=N)N)NC(=O)[C@@H](Cc2ccccc2)NC(=O)[C@H](Cc2c[nH]cn2)NC1=O [Peptide 17] (Hexanoyl-[Dap]H[dF]RG; lactam 1-C) | > 10 µM | -0.5% | 1 µM | 84% | 14% | 7.8 µM | 12% | > 10 µM | 0.01 µM | 94% | 1.3 µM | 83%
CC(=O)N[C@@H](CCCNC(=N)N)C(=O)N[C@H]1CCCNC(=O)CCCNC(=O)[C@H](Cc2c[nH]c3ccccc23)NC(=O)[C@H](CCCNC(=N)N)NC(=O)[C@@H](Cc2ccccc2)NC(=O)[C@H](Cc2c[nH]cn2)NC1=O [Peptide 13] | > 10 µM | 25% | 0.001 µM | 80% | 87% | 0.00027 µM | 101% | 0.0004 µM |  |  |  | 
CC(=O)N[C@@H](CCCNC(=N)N)C(=O)N[C@H]1CCCNC(=O)CCCNC(=O)[C@H](Cc2c[nH]c3ccccc23)NC(=O)[C@H](CCCNC(=N)N)NC(=O)[C@@H](Cc2ccccc2)NC(=O)[C@H](CC(N)=O)NC1=O [Peptide 8] (Ac-R[Orn]N[dF]RW[GABA]; lactam 2-C) | > 10 µM | 41% | 0.23 µM | 74% | 101% | 0.001 µM | 75% | 0.02 µM |  |  |  | 

Further compounds by falling EC50 (mMC1r [1]), results first:

EC50 (hMC5r) | Emax (hMC5r) | EC50 (mMC1r [1]) | Emax (mMC1r [1]) | Emax (hMC4r) | EC50 (hMC4r) | Emax (hMC3r) | EC50 (hMC3r) | EC50 (hMC1r) | Emax (hMC1r) | EC50 (mMC1r [2]) | Emax (mMC1r [2]) | SMILES
> 10 µM | 20% | 0.206 µM | 95% | 116% | 0.002 µM | 48% | 0.055 µM |  |  |  |  | CC(=O)N[C@@H](CCCNC(=N)N)C(=O)N[C@H]1CNC(=O)CCCCCNC(=O)[C@H](Cc2c[nH]c3ccccc23)NC(=O)[C@H](CCCNC(=N)N)NC(=O)[C@@H](Cc2ccccc2)NC(=O)[C@H](CC(N)=O)NC1=O [Peptide 12] (Ac-R[Dap]N[dF]RW[Ahx]; lactam 2-C)
0.14 µM | 44% | 0.14 µM | 102% | 94% | 0.0003 µM | 90% | 0.002 µM |  |  |  |  | CC(=O)N[C@@H](CCCNC(=N)N)C(=O)N[C@H]1CCCCNC(=O)CCNC(=O)[C@H](Cc2c[nH]c3ccccc23)NC(=O)[C@H](CCCNC(=N)N)NC(=O)[C@@H](Cc2ccccc2)NC(=O)[C@H](CC(N)=O)NC1=O [Peptide 15] (Ac-RKN[dF]RW[βAla]; lactam 2-C)
> 10 µM | 3% | 0.09 µM | 99% | 68% | 2.1 µM | 16% | 7.68 µM | 0.005 µM | 89% | 0.18 µM | 90% | CCCCCC(=O)N[C@H]1CNC(O)CCNC(=O)[C@H](CCCNC(=N)N)NC(=O)[C@@H](Cc2ccccc2)NC(=O)[C@H](Cc2c[nH]cn2)NC1=O (stereo partly shown) [Peptide 18]
0.00023 µM | 96% | 0.002 µM | 61% | 33% | 0.005 µM | 14% | > 10 µM |  |  |  |  | CCCC[C@H](NC(C)=O)C(=O)N[C@H]1CCCCNC(=O)CCNC(=O)[C@H](Cc2c[nH]c3ccccc23)NC(=O)[C@H](CCCNC(=N)N)NC(=O)[C@@H](Cc2cccc3ccccc23)NC(=O)C2CC(OCc3ccccc3)CN2C1=O (stereo partly shown) [Peptide 2] (Ac-[Nle]K[ξHyp](Bn)[d1Nal]RW[βAla]; lactam 2-C)
> 10 µM | 13% | 0.002 µM | 93% | 99% | 0.00019 µM | 98% | 0.007 µM |  |  |  |  | CC(=O)N[C@@H](CCCNC(=N)N)C(=O)N[C@H]1CNC(=O)CCCCCNC(=O)[C@H](Cc2c[nH]c3ccccc23)NC(=O)[C@H](CCCNC(=N)N)NC(=O)[C@@H](Cc2ccccc2)NC(=O)[C@H](Cc2c[nH]cn2)NC1=O [Peptide 11]
> 10 µM | 22% | 0.00079 µM | 111% | 83% | 0.00015 µM | 106% | 0.0002 µM |  |  |  |  | CC(=O)N[C@@H](CCCNC(=N)N)C(=O)N[C@H]1CCCCNC(=O)CCNC(=O)[C@H](Cc2c[nH]c3ccccc23)NC(=O)[C@H](CCCNC(=N)N)NC(=O)[C@@H](Cc2ccccc2)NC(=O)[C@H](Cc2c[nH]cn2)NC1=O [Peptide 14] (Ac-RKH[dF]RW[βAla]; lactam 2-C)
